Measurements reported in patent US5650428A, “Arylsulfonamide derivative and pharmaceutical compositions and use thereof” (NKK Corporation, priority 1993, dated 1997).

Experiments:
rat platelet = assay: Inhibitory activity of aggregation in rat platelet; format: cell-based; details: rat platelet rich plasma, arachidonic acid (final concentration 0.5 mM) as inducer; read-out: C: Inhibitory activity of aggregation in rat platelet (IC50; μM)
Method: (3) Inhibitory Activity of Aggregation in Rat Platelet The abdomen of etherized rat was open, and blood was taken from the abdominal arteries, using a sodium citrate solution (final concentration was 0.38%). The blood was centrifuged at 1100 rpm for 10 minutes, and the supernatent was separated as the platelet rich plasma. The plasma was further centrifuged at 2000 rpm for 15 minutes to obtain the supernatent as a platelet poor plasma. The platelet rich plasma (280 μl) was placed in a measuring cuvette and preincubated for 1 minute at 37° C. Then, a sample solution (10 μl) was added. After 2 minutes, an arachidonic acid solution (final concentration=0.5 mM) (10 μl) was added as an inducer. The change in light transmission was recorded for 5 minutes.

[1] = target: T1, thromboxane A2 (TxA2) receptor (Cavia porcellus, UniProt A0A286Y4I8); assay: TxA2 antagonist action by binding assay; details: washed guinea pig platelets, 1 nM [3H]-SQ29,548, 45 minutes at 25° C.
T1 construct: to obtain washed platelets; from tissue; host or cells: washed platelets of male Hartley guinea pigs
T1 sequence (A0A286Y4I8 1-347): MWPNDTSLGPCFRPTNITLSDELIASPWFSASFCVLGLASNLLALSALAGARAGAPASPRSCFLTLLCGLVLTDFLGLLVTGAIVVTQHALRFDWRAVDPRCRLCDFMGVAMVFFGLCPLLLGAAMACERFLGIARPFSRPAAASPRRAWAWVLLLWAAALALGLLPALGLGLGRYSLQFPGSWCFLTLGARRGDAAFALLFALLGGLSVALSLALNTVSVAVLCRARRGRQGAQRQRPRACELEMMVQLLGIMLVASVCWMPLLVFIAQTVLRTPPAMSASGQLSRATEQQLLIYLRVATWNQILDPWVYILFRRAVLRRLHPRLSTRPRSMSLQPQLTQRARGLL
Method: (1) TxA2 antagonist action by binding assay Guinea pigs (Hartley; male; body weight=approximately 500 g) were anesthetized with ether, and the blood was collected into sodium citrate (final concentration=0.38%). The preparation of platelets was carried out at room temperature. The platelet rich plasma was obtained by centrifugation at 980 rpm for 10 minutes. One tenth (1/10) amount of 77 mM-EDTA-Na (pH 7.4) was added to the platelet rich plasma, and the mixture was centrifuged for 10 minutes at 3000 rpm. The suspension was again centrifuged at 3000 rpm for 10 minutes. The precipitate was further resuspended in a suspension buffer (2) shown in Table 2 to obtain washed platelets. The number of platelets was counted by an automatic blood cell counter (Sysmex Microcellcounter F-800) and the sample was diluted with the suspension buffer to 4×10^8 cells/ml. The platelets, sample solution and labeled compounds were placed into plastic tubes in amounts (volumes) shown in the following Table 3, incubated for 45 minutes at 25° C., and then the mixture was filtered using a cell harvester (Brandel cell harvester M-24R) by a glass fiber filter (Whatman GF/B). After the filter was sufficiently dried, the scintillation was counted by a scintillation counter (Beckman LS5000TD). IC50 was calculated from (binding)/(control binding) ratio in the presence of an antagonist. [table 3: the next 10 blocks are its lines as printed, fixed-width]

Row | SMILES | IC50 (rat platelet) [µM] | IC50 [1] [µM]
1 | O=C(O)Cc1ccc(NC(=O)C(COc2cccc(Cl)c2)NS(=O)(=O)c2ccc(Cl)cc2)cc1 (racemic) [Example 131, (RS)-N-(4-(carboxymethyl)phenyl)-2-(4-chlorobenzenesulfonylamino)-3-(3-chlorophenoxy)propanamide] | 1.7 | 0.047
2 | O=C(O)Cc1ccc(NC(=O)C(COc2ccccc2Cl)NS(=O)(=O)c2ccc(Cl)cc2)cc1 (racemic) [Example 132, (RS)-N-(4-(carboxymethyl)phenyl)-2-(4-chlorobenzenesulfonylamino)-3-(2-chlorophenoxy)propanamide] | 1.7 | 0.023
3 | O=C(O)Cc1ccc(NC(=O)C(COc2ccccc2)NS(=O)(=O)c2ccc(F)cc2)cc1 (racemic) [Example 136, (RS)-N-(4-(carboxymethyl)phenyl)-2-(4-fluorobenzenesulfonylamino)-3-phenoxypropanamide] | 0.55 | 0.15
4 | O=C(O)Cc1ccc(NC(=O)C(COc2ccc(Cl)cc2)NS(=O)(=O)c2ccc(F)cc2)cc1 (racemic) [Example 137, (RS)-N-(4-(carboxymethyl)phenyl)-3-(4-chlorophenoxy)-2-(4-fluorobenzenesulfonylamino)propanamide] | 1.7 | 0.1
5 | O=C(O)Cc1ccc(NC(=O)C(COc2cccc(Cl)c2)NS(=O)(=O)c2ccc(F)cc2)cc1 (racemic) [Example 138, (RS)-N-(4-(carboxymethyl)phenyl)-3-(3-chlorophenoxy)-2-(4-fluorobenzenesulfonylamino)propanamide] | 0.53 | 0.1
6 | O=C(O)Cc1ccc(NC(=O)C(COc2ccccc2)NS(=O)(=O)c2ccc(Br)cc2)cc1 (racemic) [Example 142, (RS)-2-(4-bromobenzenesulfonylamino)-N-(4-(carboxymethyl)phenyl)-3-phenoxypropanamide] | 0.53 | 0.024
7 | O=C(O)Cc1ccc(NC(=O)C(COc2ccc(Cl)cc2)NS(=O)(=O)c2ccc(Br)cc2)cc1 (racemic) [Example 143, (RS)-2-(4-bromobenzenesulfonylamino)-N-(4-(carboxymethyl)phenyl)-3-(4-chlorophenoxy) propanamide] | 1.7 | 0.037
8 | O=C(O)Cc1ccc(NC(=O)C(COc2cccc(Cl)c2)NS(=O)(=O)c2ccc(Br)cc2)cc1 (racemic) [Example 144, (RS)-2-(4-bromobenzenesulfonylamino)-N-(4-(carboxymethyl)phenyl)-3-(3-chlorophenoxy) propanamide] | 0.53 | 0.051
9 | O=C(O)Cc1ccc(NC(=O)C(COc2ccccc2)NS(=O)(=O)c2ccc(I)cc2)cc1 (racemic) [Example 149, (RS)-N-(4-(carboxymethyl)phenyl)-2-(4-iodobenzenesulfonylamino)-3-phenoxypropanamide] | 0.17 | 0.017
10 | O=C(O)Cc1ccc(NC(=O)C(COc2ccc(Cl)cc2)NS(=O)(=O)c2ccc(I)cc2)cc1 (racemic) [Example 150, (RS)-N-(4-(carboxymethyl)phenyl)-3-(4-chlorophenoxy)-2-(4-iodobenzenesulfonylamino)propanamide] | 5.4 | 0.019
11 | O=C(O)Cc1ccc(NC(=O)C(COc2cccc(Cl)c2)NS(=O)(=O)c2ccc(I)cc2)cc1 (racemic) [Example 151, (RS)-N-(4-(carboxymethyl)phenyl)-3-(3-chlorophenoxy)-2-(4-iodobenzenesulfonylamino) propanamide] | 1.7 | 0.019
12 | O=C(O)Cc1ccc(NC(=O)C(COc2ccccc2Cl)NS(=O)(=O)c2ccc(I)cc2)cc1 (racemic) [Example 152, (RS)-N-(4-(carboxymethyl)phenyl)-3-(2-chlorophenoxy)-2-(4-iodobenzenesulfonylamino)propanamide] | 1.7 | 0.074
